In patent US12459951B2, “Compounds that interact with RAS superfamily proteins for treatment of cancers, inflammatory diseases, rasopathies, and fibrotic disease” (SHY Therapeutics, LLC, priority 2022, dated 2025):

Columns and labels:
[1] = tested on: JNK phosphorylation; assay: JNK Activation Assay (western blot), Panc-1; type: cell-based, human; details: at 10 μM, Panc-1 pancreatic cancer cell line; starred symbols = activation
Protocol: Protocol for JNK Activation Assay
This assay is referred to as the “JNK Activation Assay” throughout this application.
Cell lines: Human tumor-derived pancreatic cancer cell line Panc-1 (expressing KRas […] mutant) was purchased from American Type Culture Collection and grown in complete DMEM-High Glucose medium, supplemented with penicillin (100 U/mL), streptomycin (100 μg/mL), and 10% heat-inactivated FBS at 37° C. in a humidified incubator with 5% CO2.
Method 1: Cells were plated at 350000 cells/well density in a 12-well plate, allowed 3 hours to adhere to the plate, then starved in the appropriate medium in the presence of 0.5% FBS overnight. The small molecules to be tested were added to the cells in the final concentration of 10 μM in the presence of 0.3% DMSO for 6 hours incubation at 37° C. For IC50 value determination, serial dilutions of compounds were added to cells under the same conditions. Next, cells were stimulated with 1.5 ng/ml EGF for 15 minutes then cells were lysed with lysis buffer containing 1% Triton X-100, EDTA, and Halt™ Protease & Phosphatase Inhibitor Cocktail (Thermo Scientific). Protein concentration was assessed by BCA protein assay (Thermo Scientific). Phosphorylation level of JNK was determined by western blot.
Method 2: Cells were plated at 350000 cells/well density in a 12-well plate in the presence of 10% FBS. The next day small molecules to be tested were added to the cells in the final concentration of 10 μM in the presence of 0.3% DMSO for 6 hours incubation at 37° C. For IC50 value determination, serial dilutions of compounds were added to cells under the same conditions. Next, cells were lysed with lysis buffer containing 1% Triton X-100, EDTA, and Halt™ Protease & Phosphatase Inhibitor Cocktail (Thermo Scientific). Protein concentration was assessed by BCA protein assay (Thermo Scientific). Phosphorylation level of JNK was determined by western blot.
Western blot protocol: Equal amounts of protein (15-50 μg) were separated by SDS-PAGE and transferred to nitrocellulose membranes (Invitrogen by Thermo Fisher Scientific). The membrane was stained with Ponceau S Stain (Boston BioProducts) to verify uniform protein loading. Membranes were blocked with 10% milk and phosphorylation levels of JNK were assessed by incubating overnight at 4° C. with the antibody Phospho-SAPK/JNK (Thr183/Tyr185), from Cell Signaling Technology. Then the membranes were incubated with HRP-conjugated secondary antibody (Jackson Immunoresearch, West Grove, PA). Bands were incubated in Amersham ECL Prime Western Blotting Detection Reagent (GE Healthcare) and visualized using the ChemiDoc MP imaging system (Bio-Rad).

[2] = tested on: KRas Q61H mutant; assay: Ras GTP Binding Domain Inhibition Assay (Ras Superfamily Assay); details: 20 μM compound; for KRas Q61H mutant + SOS: % inh.: with SOS; for KRas Q61H mutant: % inh.: without SOS
Summary of the method: (§1)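 Ni-plate capture of His-tagged protein (10-30 μg/mL, o/n 4° C); cpd 20 μM or dilution series, 1% DMSO, 3 h RT ± Sos 556-1049 last h; 100 nM Cy-labelled GTP 45 min RT; 3× wash; fluorescence read.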

[3] = tested on: KRas G12C mutant; assay: as above; details: for KRas G12C mutant + SOS: % inh.: with SOS; for KRas G12C mutant: % inh.: without SOS
Summary of the method: as §1

[4] = target: T1, Rho-A (Homo sapiens, UniProt P61586); assay: as above; details: read-out: Rho-A: % inh..
T1 construct: made in house
T1 sequence (P61586 whole entry): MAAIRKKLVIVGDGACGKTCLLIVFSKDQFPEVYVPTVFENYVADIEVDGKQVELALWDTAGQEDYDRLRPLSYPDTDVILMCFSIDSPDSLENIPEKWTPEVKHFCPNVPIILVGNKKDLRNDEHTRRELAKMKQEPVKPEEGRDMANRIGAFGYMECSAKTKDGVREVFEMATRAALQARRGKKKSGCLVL
Summary of the method: as §1

Compound | % inh of JNK in Panc-1 [1] | KRas Q61H mutant + SOS: % inh. [2] | KRas Q61H mutant: % inh. [2] | KRas G12C mutant + SOS: % inh. ([3]; 20 μM compound) | KRas G12C mutant: % inh. ([3]; 20 μM compound) | inhibition at 20 µM [4] [%] | KRas G12C mutant + SOS: % inh. ([3]; at 20 μM) | KRas G12C mutant: % inh. ([3]; at 20 μM)
COC[C@@H]1CC[C@@H]1CNc1nc(-c2ccccn2)nn2cc(-c3ccn(C(C)C)n3)c(C)c12 (racemic) [Compound 11, rac 6-(1-Isopropyl-1H-pyrazol-3-yl)-N-(((1S,2R)-2-(methoxymethyl)cyclobutyl)methyl)-5-methyl-2-(pyridin-2-yl)pyrrolo[2,1-f][1,2,4]triazin-4-amine] | G* (G* = 75-99% activation) | 0 (0 = 0% inhibition) | A (A = 1-25% inhibition) | 0 (0 = 0% inhibition) | B (B = 26-49% inhibition) | 0 |  | 
COc1cccc(Nc2nc(-c3ccccn3)nn3cc(-c4ccn(C(C)C)n4)c(C)c23)n1 [Compound 14, 6-(1-Isopropyl-1H-pyrazol-3-yl)-N-(6-methoxypyridin-2-yl)-5-methyl-2-(pyridin-2-yl)pyrrolo[2,1-f][1,2,4]triazin-4-amine] | F* (F* = 31-74% activation) | 0 (0 = 0% inhibition) | 0 (0 = 0% inhibition) | 0 (0 = 0% inhibition) | B (B = 26-49% inhibition) | 0 |  | 
COC1CCCN(c2nc(-c3ccccn3)nn3cc(-c4ccn(C(C)C)n4)c(C)c23)C1 (racemic) [Compound 12, rac 6-(1-Isopropyl-1H-pyrazol-3-yl)-4-(3-methoxypiperidin-1-yl)-5-methyl-2-(pyridin-2-yl)pyrrolo[2,1-f][1,2,4]triazine] | E* (E* = 1-30% activation) | 0 (0 = 0% inhibition) | 0 (0 = 0% inhibition) | 0 (0 = 0% inhibition) | B (B = 26-49% inhibition) | 0 |  | 
COc1cc(Nc2nc(-c3ccccn3)nn3cc(-c4ccn(C(C)C)n4)c(C)c23)ncn1 [Compound 13, 6-(1-Isopropyl-1H-pyrazol-3-yl)-N-(6-methoxypyrimidin-4-yl)-5-methyl-2-(pyridin-2-yl)pyrrolo[2,1-f][1,2,4]triazin-4-amine] | H* (H* ≥ 100% activation) | 0 (0 = 0% inhibition) | 0 (0 = 0% inhibition) | 0 (0 = 0% inhibition) | A (A = 1-25% inhibition) | 0 |  | 
COc1cccc(-c2cn3nc(-c4nccn4C)nc(O)c3c2C)c1Cl [Compound 15, 6-(2-Chloro-3-methoxyphenyl)-5-methyl-2-(1-methyl-1H-imidazol-2-yl)pyrrolo[2,1-f][1,2,4]triazin-4-ol] | F* (F* = 31-74% activation) | A (A = 1-25% inhibition) | A (A = 1-25% inhibition) | 0 (0 = 0% inhibition) | 0 (0 = 0% inhibition) | 1 to 25 |  | 
COCC1CCN(c2nc(-c3ccccn3)nn3cc(-c4ccn(C(C)C)n4)c(C)c23)C1 (racemic) [Compound 10, rac 6-(1-Isopropyl-1H-pyrazol-3-yl)-4-(3-(methoxymethyl)pyrrolidin-1-yl)-5-methyl-2-(pyridin-2-yl)pyrrolo[2,1-f][1,2,4]triazine] | E* (E* = 1-30% activation) | 0 (0 = 0% inhibition) | A (A = 1-25% inhibition) | 0 (0 = 0% inhibition) | B (B = 26-49% inhibition) | 0 |  | 
Cc1c(-c2ccn(C)n2)cn2nc(-c3nccn3C)nc(N)c12 [Compound 211, 5-Methyl-2-(1-methyl-1H-imidazol-2-yl)-6-(1-methyl-1H-pyrazol-3-yl)pyrrolo[2,1-f][1,2,4]triazin-4-amine] |  |  |  |  |  |  | D (D = 76-100% inhibition) | C (C = 50-75% inhibition)
COCCNc1nc(-c2nccn2C)nn2cc(-c3cccc(OC)c3Cl)c(C)c12 [Compound 16, 6-(2-Chloro-3-methoxyphenyl)-N-(2-methoxyethyl)-5-methyl-2-(1-methyl-1H-imidazol-2-yl)pyrrolo[2,1-f][1,2,4]triazin-4-amine] | F* (F* = 31-74% activation) | 0 (0 = 0% inhibition) | A (A = 1-25% inhibition) | 0 (0 = 0% inhibition) | B (B = 26-49% inhibition) | 0 |  | 
